We go through 34 molecules from US12415794B2 (Edgewise Therapeutics, Inc., priority 2018, dated 2025).

Test [1] concerns the target skeletal myofibrils (myosin ATPase). In words: Skeletal Myofibril ATPase Assay. It is filed as biochemical. Summed up:
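Rates of NADH loss (A340, kinetic read over 45 min) report ADP generation by myofibrillar myosin, coupled through pyruvate kinase and lactate dehydrogenase; pCa buffer at pH 7.0. IC50 fitted by 4-parameter logistic after normalizing to 1% DMSO controls; cardiac myofibrils served for selectivity.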

In test [2] the target is T1, cardiac myofibrils (myosin ATPase).
T1 construct: frozen myofibril pellets obtained from cardiac tissue; from tissue
Description: Cardiac Myofibril ATPase Assay (counter screen). The conditions noted are these: myofibrils 1.0 mg/mL, KCl omitted. It is filed as biochemical. In outline:
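Myosin ATPase rate followed via NADH disappearance at 340 nm, coupled through pyruvate kinase and lactate dehydrogenase, using cardiac myofibril pellets (final 1.0 mg/mL) without KCl. IC50 values reflect rate reduction compared with vehicle-treated wells.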

T1 sequence (P12883 whole entry): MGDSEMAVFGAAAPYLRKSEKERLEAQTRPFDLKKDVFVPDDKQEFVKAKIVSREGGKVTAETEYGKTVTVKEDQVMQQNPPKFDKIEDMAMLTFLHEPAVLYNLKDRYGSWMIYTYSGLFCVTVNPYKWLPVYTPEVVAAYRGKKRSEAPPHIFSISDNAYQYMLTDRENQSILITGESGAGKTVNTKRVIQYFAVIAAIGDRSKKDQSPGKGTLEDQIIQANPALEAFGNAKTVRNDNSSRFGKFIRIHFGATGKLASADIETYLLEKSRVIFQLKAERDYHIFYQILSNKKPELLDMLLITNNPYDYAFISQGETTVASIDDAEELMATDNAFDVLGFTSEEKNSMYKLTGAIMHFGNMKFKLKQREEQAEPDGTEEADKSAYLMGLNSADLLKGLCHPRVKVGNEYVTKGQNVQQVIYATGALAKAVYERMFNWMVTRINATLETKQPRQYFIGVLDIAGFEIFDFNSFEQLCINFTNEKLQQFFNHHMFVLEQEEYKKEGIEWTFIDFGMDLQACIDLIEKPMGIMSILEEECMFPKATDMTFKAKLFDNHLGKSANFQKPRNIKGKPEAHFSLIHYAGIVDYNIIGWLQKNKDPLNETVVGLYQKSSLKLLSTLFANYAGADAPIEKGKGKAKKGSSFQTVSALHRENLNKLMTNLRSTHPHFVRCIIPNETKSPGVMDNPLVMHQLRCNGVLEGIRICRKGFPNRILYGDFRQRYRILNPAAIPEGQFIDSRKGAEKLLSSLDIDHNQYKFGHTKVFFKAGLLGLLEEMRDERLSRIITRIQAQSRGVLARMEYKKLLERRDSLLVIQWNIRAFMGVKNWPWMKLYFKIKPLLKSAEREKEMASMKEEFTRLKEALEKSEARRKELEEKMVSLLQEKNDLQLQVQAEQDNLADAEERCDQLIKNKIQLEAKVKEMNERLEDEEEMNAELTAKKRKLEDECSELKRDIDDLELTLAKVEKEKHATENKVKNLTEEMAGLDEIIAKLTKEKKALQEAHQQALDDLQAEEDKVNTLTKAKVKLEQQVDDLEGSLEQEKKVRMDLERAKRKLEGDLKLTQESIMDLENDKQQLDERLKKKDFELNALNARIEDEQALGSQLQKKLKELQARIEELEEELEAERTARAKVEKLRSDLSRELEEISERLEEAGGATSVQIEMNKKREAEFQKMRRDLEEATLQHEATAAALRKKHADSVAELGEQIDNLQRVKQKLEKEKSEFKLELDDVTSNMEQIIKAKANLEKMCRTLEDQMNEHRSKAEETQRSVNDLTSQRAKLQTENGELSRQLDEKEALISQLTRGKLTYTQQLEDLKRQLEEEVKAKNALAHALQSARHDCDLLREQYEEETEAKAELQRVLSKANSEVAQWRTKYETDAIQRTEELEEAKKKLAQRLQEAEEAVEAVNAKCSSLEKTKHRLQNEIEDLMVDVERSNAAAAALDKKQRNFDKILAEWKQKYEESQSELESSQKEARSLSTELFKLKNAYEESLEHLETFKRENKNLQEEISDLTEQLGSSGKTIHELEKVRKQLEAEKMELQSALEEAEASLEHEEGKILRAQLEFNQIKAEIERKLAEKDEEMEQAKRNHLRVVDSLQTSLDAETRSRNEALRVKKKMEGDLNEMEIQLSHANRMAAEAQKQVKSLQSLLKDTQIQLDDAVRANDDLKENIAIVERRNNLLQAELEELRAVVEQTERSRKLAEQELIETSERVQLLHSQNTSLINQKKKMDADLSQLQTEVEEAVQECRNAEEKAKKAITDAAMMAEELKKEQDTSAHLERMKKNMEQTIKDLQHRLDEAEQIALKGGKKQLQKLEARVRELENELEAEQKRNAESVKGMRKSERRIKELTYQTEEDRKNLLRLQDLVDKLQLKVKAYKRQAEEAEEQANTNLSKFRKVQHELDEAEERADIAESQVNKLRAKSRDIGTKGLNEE
T1 sequence (P08590 whole entry partner): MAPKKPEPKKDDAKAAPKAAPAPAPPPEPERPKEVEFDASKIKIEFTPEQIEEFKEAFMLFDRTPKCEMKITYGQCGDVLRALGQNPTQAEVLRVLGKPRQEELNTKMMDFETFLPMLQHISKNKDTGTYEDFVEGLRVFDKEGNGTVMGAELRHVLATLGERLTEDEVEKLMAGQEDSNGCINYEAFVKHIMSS
T1 sequence (P10916 whole entry partner): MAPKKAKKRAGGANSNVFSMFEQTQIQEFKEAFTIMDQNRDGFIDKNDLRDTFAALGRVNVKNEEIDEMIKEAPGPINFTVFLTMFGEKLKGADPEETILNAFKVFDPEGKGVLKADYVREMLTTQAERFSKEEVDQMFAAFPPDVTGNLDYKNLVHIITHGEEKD

As for `O=C(Cn1nc(-c2ccc(OC(F)F)nc2)ccc1=O)NCc1ccccc1Cl` [Compound I-69, N-(2-chlorobenzyl)-2-(3-(6-(difluoromethoxy)pyridin-3-yl)-6-oxopyridazin-1(6H)-yl)acetamide], the IC50 in test [1] (Table 4A) was less than 10 µM; in test [2] (Table 5A) it was more than 100 µM.
On to `CCNC(=O)Cn1nc(-c2ccc(OCC3COC3)nc2)ccc1=O` [Compound I-22, N-ethyl-2-(3-(6-(oxetan-3-ylmethoxy)pyridin-3-yl)-6-oxopyridazin-1(6H)-yl)acetamide], for which the IC50 in test [1] (Table 4A) is 10 to 100 µM; in test [2] (Table 5A) it was more than 100 µM.
As to `O=C(Cn1nc(-c2ccccc2)ccc1=O)Nc1ccccc1Cl` [IIIc-56, N-(2-chlorophenyl)-2-(6-oxo-3-phenylpyridazin-1(6H)-yl)acetamide], the results for the IC50 in test [1] (Table 4C) and in test [2] (Table 5C) were 10 to 100 µM and more than 100 µM, respectively.
`COc1ccc(-c2ccc(=O)n(CC(=O)NCC3CCCCC3)n2)cc1` [IIIa-4]: the figures for the half-inhibitory concentration (IC50) in test [1] (Table 4C) and in test [2] (Table 5C) were less than 10 µM and more than 100 µM, respectively.
In the same order, the values of `CC(C)NC(=O)Cn1nc(-c2ccc(Br)cc2)ccc1=O` [IIIc-40, 2-(3-(4-bromophenyl)-6-oxopyridazin-1(6H)-yl)-N-isopropylacetamide] are 10 to 100 µM and more than 100 µM.
As to `COc1ccc(-c2ccc(=O)n(CC(=O)NC(C)(C)c3ccccc3)n2)cc1` [IIIa-9, 2-(3-(4-methoxyphenyl)-6-oxopyridazin-1(6H)-yl)-N-(2-phenylpropan-2-yl)acetamide], the figures for the IC50 in test [1] (Table 4C) and in test [2] (Table 5C) were less than 10 µM and more than 100 µM, respectively.
`C[C@@H](NC(=O)Cn1nc(-c2ccc3c(c2)OCCCO3)ccc1=O)c1ccc(F)cc1` [IIIb-26, (R)-2-(3-(3,4-dihydro-2H-benzo[b][1,4]dioxepin-7-yl)-6-oxopyridazin-1(6H)-yl)-N-(1-(4-fluorophenyl)ethyl)acetamide]: the IC50 was 10 to 100 µM in test [1] (Table 4C) and more than 100 µM in test [2] (Table 5C).
Take `CCNC(=O)Cn1nc(-c2ccc(OCC(F)F)cc2)ccc1=O` [II-7, 2-(3-(4-(2,2-difluoroethoxy)phenyl)-6-oxopyridazin-1(6H)-yl)-N-ethylacetamide]: the IC50 in test [1] (Table 4B) is less than 10 µM; in test [2] (Table 5B), 10 to 100 µM.
For the molecule `COc1ccc(-c2ccc(=O)n(CC(=O)Nc3cccc4[nH]ccc34)n2)cc1` [IIIb-3, N-(1H-indol-4-yl)-2-(3-(4-methoxyphenyl)-6-oxopyridazin-1(6H)-yl)acetamide], the results for the IC50 in test [1] (Table 4C) and in test [2] (Table 5C) were less than 10 µM and more than 100 µM, respectively.
With `CCNC(=O)Cn1nc(-c2cnc(Nc3ccc(F)cc3)nc2)ccc1=O` [Compound I-2, N-ethyl-2-(3-(2-((4-fluorophenyl)amino)pyrimidin-5-yl)-6-oxopyridazin-1(6H)-yl)acetamide], the IC50 is less than 10 µM in test [1] (Table 4A) and more than 100 µM in test [2] (Table 5A).
As for `COc1ccc(-c2ccc(=O)n(CC(=O)NCc3ccccc3C)n2)cc1` [IIIa-16, 2-(3-(4-methoxyphenyl)-6-oxopyridazin-1(6H)-yl)-N-(2-methylbenzyl) acetamide], the values for the IC50 in test [1] (Table 4C) and in test [2] (Table 5C) were less than 10 µM and more than 100 µM, respectively.
With `CCNC(=O)Cn1nc(-c2ccc(OC)cc2)ccc1=O` [IIIa-3, N-ethyl-2-(3-(4-methoxyphenyl)-6-oxopyridazin-1(6H)-yl)acetamide], the IC50 is less than 10 µM in test [1] (Table 4C) and more than 100 µM in test [2] (Table 5C).
On to `CCNC(=O)Cn1nc(-c2ccc(N3CC4(COC4)C3)nc2)ccc1=O` [Compound I-31, 2-(3-(6-(2-oxa-6-azaspiro[3.3]heptan-6-yl)pyridin-3-yl)-6-oxopyridazin-1(6H)-yl)-N-ethylacetamide], for which the IC50 in test [1] (Table 4A) and in test [2] (Table 5A) was more than 100 µM each time.
With `O=C(Cn1nc(-c2ccc3c(c2)OCCCO3)ccc1=O)NC1CCCCCC1` [IIIb-24, N-cycloheptyl-2-(3-(3,4-dihydro-2H-benzo[b][1,4]dioxepin-7-yl)-6-oxopyridazin-1(6H)-yl)acetamide], the results for the IC50 in test [1] (Table 4C) and in test [2] (Table 5C) were 10 to 100 µM and more than 100 µM, respectively.
For the molecule `COc1ccc(-c2ccc(=O)n(CC(=O)NCCC(C)C)n2)cc1` [IIIb-48, N-isopentyl-2-(3-(4-methoxyphenyl)-6-oxopyridazin-1(6H)-yl)acetamide], the IC50 in test [1] (Table 4C) and in test [2] (Table 5C) was more than 100 µM in each case.
As to `COCCNC(=O)Cn1nc(-c2ccc(OC)cc2)ccc1=O` [IIIb-47, N-(2-methoxyethyl)-2-(3-(4-methoxyphenyl)-6-oxopyridazin-1(6H)-yl)acetamide], the IC50 in test [1] (Table 4C) and in test [2] (Table 5C) was more than 100 µM throughout.
Consider `COc1ccc(-c2ccc(=O)n(CC(=O)NCCC3=CCCCC3)n2)c(F)c1` [IIIb-7, N-(2-(cyclohex-1-en-1-yl)ethyl)-2-(3-(2-fluoro-4-methoxyphenyl)-6-oxopyridazin-1(6H)-yl)acetamide], for which the IC50 in test [1] (Table 4C) is less than 10 µM; in test [2] (Table 5C), more than 100 µM.
In the same order, the values of `O=C(Cn1nc(-c2ccccc2)ccc1=O)Nc1cccc2[nH]ccc12` [IIIc-50, N-(1H-indol-4-yl)-2-(6-oxo-3-phenylpyridazin-1(6H)-yl)acetamide] are 10 to 100 µM and more than 100 µM.
In the same order, the values of `O=C(Cn1nc(-c2ccc(F)cc2)ccc1=O)NCCc1c[nH]c2ccccc12` [IIIc-44, N-(2-(1H-indol-3-yl)ethyl)-2-(3-(4-fluorophenyl)-6-oxopyridazin-1(6H)-yl)acetamide] are 10 to 100 µM and more than 100 µM.
For `CCOc1ccc(-c2ccc(=O)n(CC(=O)NCc3ccccc3Cl)n2)cc1` [IIIa-1, N-(2-chlorobenzyl)-2-(3-(4-ethoxyphenyl)-6-oxopyridazin-1(6H)-yl)acetamide], the IC50 in test [1] (Table 4C) was less than 10 µM; in test [2] (Table 5C), more than 100 µM.
Consider `COc1ccc(-c2ccc(=O)n(CC(=O)NC3CC3)n2)cc1` [IIIb-22, N-cyclopropyl-2-(3-(4-methoxyphenyl)-6-oxopyridazin-1(6H)-yl)acetamide], for which the IC50 in test [1] (Table 4C) was 10 to 100 µM; in test [2] (Table 5C), more than 100 µM.
The corresponding values for `COc1ccc(Cl)cc1NC(=O)Cn1nc(-c2ccccc2)ccc1=O` [IIIc-62, N-(5-chloro-2-methoxyphenyl)-2-(6-oxo-3-phenylpyridazin-1(6H)-yl)acetamide] are more than 100 µM and more than 100 µM.
Take `CCNC(=O)Cn1nc(-c2ccc(OC(F)F)[n+]([O-])c2)ccc1=O` [Compound I-65, 2-(difluoromethoxy)-5-(1-(2-(ethylamino)-2-oxoethyl)-6-oxo-1,6-dihydropyridazin-3-yl)pyridine 1-oxide]: the IC50 in test [1] (Table 4A) and in test [2] (Table 5A) was more than 100 µM in each case.
For the molecule `CCNC(=O)Cn1nc(-c2ccc(N3CCC34COC4)nc2)ccc1=O` [Compound I-19, 2-(3-(6-(6-oxa-1-azaspiro[3.3]heptan-1-yl)pyridin-3-yl)-6-oxopyridazin-1(6H)-yl)-N-ethylacetamide], the IC50 was 10 to 100 µM in test [1] (Table 4A) and more than 100 µM in test [2] (Table 5A).
Consider `COc1ccc(-c2ccc(=O)n(CC(=O)NCc3ccccc3Cl)n2)cn1` [Compound I-5, N-(2-chlorobenzyl)-2-(3-(6-methoxypyridin-3-yl)-6-oxopyridazin-1(6H)-yl)acetamide], for which the IC50 in test [1] (Table 4A) was less than 10 µM; in test [2] (Table 5A), more than 100 µM.
Take `CNC(=O)Cn1nc(-c2ccc(OC)cc2)ccc1=O` [IIIa-21, 2-(3-(4-methoxyphenyl)-6-oxopyridazin-1(6H)-yl)-N-methylacetamide]: the figures for the IC50 in test [1] (Table 4C) and in test [2] (Table 5C) were 10 to 100 µM and more than 100 µM, respectively.
Consider `O=C(Cn1nc(-c2ccc(NC3CCC3)nc2)ccc1=O)NC1CCC1` [Compound I-52, N-cyclobutyl-2-(3-(6-(cyclobutylamino)pyridin-3-yl)-6-oxopyridazin-1(6H)-yl)acetamide], for which the IC50 is less than 10 µM in test [1] (Table 4A) and more than 100 µM in test [2] (Table 5A).
As for `O=C(Cn1nc(-c2ccc(OC(F)F)nc2)ccc1=O)NC1(c2ccccc2)CCC1` [Compound I-68, 2-(3-(6-(difluoromethoxy)pyridin-3-yl)-6-oxopyridazin-1(6H)-yl)-N-(1-phenylcyclobutyl)acetamide], the IC50 in test [1] (Table 4A) is less than 10 µM; in test [2] (Table 5A), more than 100 µM.
Consider `O=C(Cn1nc(-c2ccccc2)ccc1=O)Nc1ccc(Cl)cc1Cl` [IIIc-54, N-(2,4-dichlorophenyl)-2-(6-oxo-3-phenylpyridazin-1(6H)-yl)acetamide], for which the IC50 in test [1] (Table 4C) was 10 to 100 µM; in test [2] (Table 5C), more than 100 µM.
`O=C(Cn1nc(-c2ccc(OCC(F)(F)F)cc2)ccc1=O)NCc1ccc(O)nc1` [II-20, N-((6-hydroxypyridin-3-yl)methyl)-2-(6-oxo-3-(4-(2,2,2-trifluoroethoxy)phenyl)pyridazin-1(6H)-yl)acetamide]: the IC50 in test [1] (Table 4B) and in test [2] (Table 5B) was more than 100 µM in each case.
`COc1ccc(-c2ccc(=O)n(CC(=O)NCc3cnn(C)c3)n2)cc1` [IIIa-32, 2-(3-(4-methoxyphenyl)-6-oxopyridazin-1(6H)-yl)-N-((1-methyl-1H-pyrazol-4-yl)methyl) acetamide]: the IC50 in test [1] (Table 4C) and in test [2] (Table 5C) was more than 100 µM throughout.
In the case of `O=C(Cn1nc(-c2cnc(OCCOC(F)(F)F)nc2)ccc1=O)NC1CCC1` [Compound I-72, N-cyclobutyl-2-(6-oxo-3-(2-(2-(trifluoromethoxy)ethoxy)pyrimidin-5-yl)pyridazin-1(6H)-yl)acetamide], the figures for the IC50 in test [1] (Table 4A) and in test [2] (Table 5A) were less than 10 µM and more than 100 µM, respectively.
Consider `COc1ccc(-c2ccc(=O)n(CC(=O)NC(C)C)n2)cn1` [Compound I-16, N-isopropyl-2-(3-(6-methoxypyridin-3-yl)-6-oxopyridazin-1(6H)-yl)acetamide], for which the IC50 in test [1] (Table 4A) was 10 to 100 µM; in test [2] (Table 5A), more than 100 µM.
`COc1ccc(-c2ccc(=O)n(CC(=O)NC3CCCC3)n2)cc1OC` [IIIb-45, N-cyclopentyl-2-(3-(3,4-dimethoxyphenyl)-6-oxopyridazin-1(6H)-yl)acetamide]: the IC50 in test [1] (Table 4C) and in test [2] (Table 5C) was more than 100 µM in each case.
